Measured values published in patent US20260199284A1, “SPECIFIC VASH COMPOUNDS (SVC) INHIBITORS FOR HEART DISEASES” (MT ACT, priority 2023, published 2026).
Entries after “also recorded” stand apart in the source; their conditions may differ.

How the values were obtained:
[1] = tested on: human adult cardiomyocytes; assay: Western blot of tubulin detyrosination and acetylation in human adult cardiomyocytes; format: cell-based
Protocol: FIG. 33: human adult cardiomyocytes are treated with vehicle or SVC-01 (inhibitor). Protein lysates are analysed by western blot to evaluate the level of tubulin detyrosination and acetylation.
Specificity of SVC-01 was assayed using both human VASH1 and VASH2 recombinant enzymes. […] Finally, to ensure that regulation of other genes involved in the detyrosination-tyrosination cycle is not affected, we analysed gene expression of all relevant and associated genes following treatment with SVC-02 in adult human cardiomyocytes. We found no alteration of VASH1, VASH2, MATCAP, TTL or SVBP gene expression between vehicle control and SVC-02 treated cells (FIG. 34).

[2] = target: T1, Human rhinovirus (HRV) type 14 3C protease (Human rhinovirus 14, UniProt P03303); assay: HRV type 14 3C protease assay; format: biochemical; details: increasing dose
T1 construct: Assay using active recombinant Human rhinovirus (HRV) type 14 3C protease
Text: FIG. 7: Assay using active recombinant Human rhinovirus (HRV) type 14 3C protease Cysteine in absence (neg) or presence (increasing dose) of SVC_01. HRV is a protease with preference for non-aromatic residues at P1′. The optimum recognition site for Human rhinovirus (HRV) type 14 3C protease is LEVLFQ/GP, with a glycine at the P1′ position.
Below, the criteria for selection are detailed: • Protease with documented carboxypeptidase activity towards alpha tubulin. Carboxypeptidase A hydrolyzes peptide bonds of C-terminal residues with aromatic or aliphatic side-chains (FIG. 6). • Cysteine protease with preference for non-aromatic residues at P1′. The optimum recognition site for Human rhinovirus (HRV) type 14 3C protease is LEVLFQ/GP, with a glycine at the P1′ position (FIG. 7). • Cysteine protease with preference for aromatic residues at P1′ site. Alike VASH, cathepsin B prefers an aromatic residue at the P1′ position. This is considered to be our best control for specificity (FIG. 8)

[3] = tested on: primary cardiomyocytes isolated from Sprague Dawley rats; assay: Western blot of detyrosinated tubulin in primary cardiomyocytes; format: cell-based, rat
Protocol: A) Representative western blot and B) quantification of detyrosinated and alpha-tubulin levels after 2 hrs 37° C. incubation of freshly isolated adult rat cardiomyocytes with compound SVC_01 at indicated concentrations. N=4 Sprague Dawley rats.
Primary adult ventricular cardiac myocytes were isolated from 6 to 8 weeks old Sprague Dawley rats or 20 to 30 weeks old WKY, ZSF1 lean and obese rats. Briefly, the heart was removed from a rat anesthetized under isoflurane and retrograde-perfused on a Langendorff apparatus with a collagenase solution. The digested heart was then minced and triturated using a glass pipette. The resulting supernatant was separated and centrifuged at 300 revolution per minute (rpm) to isolate cardiomyocytes which were then resuspended in rat cardiomyocyte media at low density. Cardiomyocytes were cultured at 37° C. and 5% CO2 with 25 μmol/L of cytochalasin D. Rat cardiomyocyte media: medium 199 (Thermo Fisher 115090) supplemented with 1× Insulin-transferrin-selenium-X (Gibco 51500056), 1 μg μl^−1 primocin (Invivogen ant-pm-1), 20 mmol/L HEPES at pH 7.4 and 25 μmol/L cytochalasin D.
For whole cell protein extraction, isolated rat cardiomyocytes were lysed in RIPA buffer (Cayman #10010263) supplemented with protease and phosphatase Inhibitor cocktail (Cell Signaling #5872S) on ice for 1 hour. […] All samples were run in duplicates and analyzed in reference to GAPDH.

[4] = tested on: cardiomyocytes isolated from failing human hearts; assay: Human myocyte contractility; format: cell-based
Protocol: Once excised, hearts were transported from the operating room to the laboratory in cold cardioplegia. The myocyte isolation was performed as previously described. An apical wedge was dissected from left ventricular free wall and a catheter was placed into the left anterior descending artery. The cannula was flushed with cold saline to evaluate perfusion of the wedge and tie any major vessels. The myocardium was then perfused with warm non-recirculating Krebs-Henseleit buffer (KHB) solution (12.5 mM glucose, 5.4 mM KCl, 1 mM lactic acid, 1.2 mM MgSO4, 130 mM NaCl, 1.2 mM NaH2PO4, 25 mM NaHCO3, 2 mM Na pyruvate, 20 mM BDM and 10 mM taurine, pH 7.4) for 10 minutes. Then, the myocardium was perfused with recirculated KHB and type II collagenase (294 units/mL) (Worthington Biochemical Corp., Lakewood, NJ, USA) for 5 minutes before calcium was slowly re-introduced to reach a final concentration of 1 mM. The collagenase and calcium supplemented KHB were recirculated for 25-30 minutes depending on the how the myocardium digested. The tissue was then removed from the cannula, rinsed in KHB with 1% bovine serum albumin (BSA) to stop the digestion, and then minced. The cell suspension was then filtered using 280-uM nylon mesh, centrifuged (25×g for 2 min), and resuspended in normal Tyrode's solution. Cells were treated with VASH inhibitor (VASHi) (1 mM) or vehicle (DMSO) before being placed in an incubator for 4 hours.
Contractility was assessed as previously described. After the 4-hour incubation with either VASHi or vehicle was complete, cardiomyocytes were transferred to 35 mm glass-bottom dishes. Contractility data was collected at 37 C. Cardiomyocytes were paced at 0.5 Hz using a myopacer (IonOptix MYP100) with custom fabricated carbon electrodes lowered into the glass bottom dish. Cells were paced for 10-15 seconds to reach steady state contractions and then data was recorded using high-speed video imaging with a Nikon PU-2000 inverted microscope with a 40× objective (IonWizard, IonOptix). A minimum of 5 contractions were recorded for Each myocyte and analyzed offline.
Cardiomyocytes were isolated from failing (N=4) and non-failing (N=3) human hearts, then treated with vehicle or VASHi (SVC-02) to evaluate bioactivity of the small molecule compound in primary human cardiomyocytes. Patient demographics are detailed in a table (FIG. 26). Compiled traces from all non-failing and failing patients are shown (FIG. 27).

T1 sequence (P03303 1538-1719): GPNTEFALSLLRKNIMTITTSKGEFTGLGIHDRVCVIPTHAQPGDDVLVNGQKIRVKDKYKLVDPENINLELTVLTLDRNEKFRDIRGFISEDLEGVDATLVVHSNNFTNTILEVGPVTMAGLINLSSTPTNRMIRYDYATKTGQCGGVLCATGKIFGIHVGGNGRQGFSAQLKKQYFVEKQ
Text for human cells: FIG. 9: Cell viability assay comparing microtubule binding drugs (Parthenolide, Taxol) to SVC_01 exposure on human cells. The MTT assay is used to measure cellular metabolic activity as an indicator of cell viability, proliferation and cytotoxicity. This colorimetric assay is based on the reduction of a yellow tetrazolium salt (3-(4,5-dimethylthiazol-2-yl)-2,5-diphenyltetrazolium bromide or MTT) to purple formazan crystals by metabolically active cells.
Next, we performed safety pharmacology experiments and head-to-head compared the cellular toxicity of SVCs on human cells.

Row | inhibition of HRV type 14 3C protease [2] | Structure (SMILES) | cell viability / proliferation (MTT) (human cells) | level of tubulin acetylation [1] | level of tubulin detyrosination [1] | reduction of tubulin detyrosination ([3]; 2 hours incubation, Sprague Dawley rat cardiomyocytes) | reduction in detyrosination ([3]; 2 hrs 37° C., indicated concentrations) | contraction velocity [4] | fractional shortening [4] | resting sarcomere length [4] | time to 50% relaxation / relaxation ([4]; 4 hours incubation)
1 | does not reduce activity | O=C(O)CCC[C@H](NC(=O)[C@H]1O[C@@H]1C(=O)C[C@@H](Cc1ccc(OCc2ccccc2)cc1)C(=O)O)C(=O)NCCc1ccccc1 [SVC_01] | does not impact cell proliferation | did not affect the level of tubulin acetylation; also recorded: remained unchanged | significantly reduces the level of tubulin detyrosination; also recorded: significant reduction of tubulin detyrosination | ~80% | Dose-dependent reduction in detyrosination | – | – | – | –
2 | – | CCOC(=O)[C@H](Cc1ccc(OCC)cc1)NC(=O)[C@H]1O[C@@H]1C(=O)N[C@@H](Cc1ccc(OCC)cc1)C(=O)OCC [SVC_02] | – | – | – | – | – | did not significantly change | did not significantly change | did not significantly change | improved; also recorded: shortened the time to 50% relaxation
